According to patent US9370503B1, “Compounds for treating ocular diseases” (priority 2015, dated 2016):

Columns and labels:
[1] = tested on: laser induced AMD rat model; assay: Laser induced AMD rat model, CNV area by fluorescein angiography; format: in vivo; details: (II) instillation, laser rupture of Bruch's membrane, vs control about 2.5 mm^2
Experimental: The rats were randomly divided into 2 groups. Control group was instilled with vehicle (30% HP-β-CD solution). […] Both eyes of all rats were instilled with 1 drop of ophthalmic solutions 3 times a day for 1 week before and 4 weeks after laser induced injury. The rats were anesthetized for all procedures with intramuscular injection of ketamine (35 mg/kg) and xylazine (5 mg/kg). The pupils were dilated with one drop each of 10 mg/ml atropine, and 25 mg/ml phenylephrine. The fundus was visualized by the VOLK super Pupil XL Biomicroscopy Lens (Keeler Instruments Inc., Broomall, Pa., USA). A double frequency Nd:YAG laser (Laserex LP3532; Lumenis Inc., Salt Lake City, Utah, USA) was used at 532 nm wavelength. Laser parameters were used by 100 μm spot size, 0.15-second exposure and 150-200 mw powers. Five laser spots were made to the ocular fundus at approximately equal distances around the optic nerves. […] Only laser spots with bubble formation were included in the study. Lesions with subretinal hemorrhage were excluded. Fluorescein angiography (FA) was performed after 2 and 4 weeks laser treatment with a digital fundus camera (TRC-50EX; TOPCON, Tokyo, Japan). 100 mg/ml fluorescein sodium salt was injected (0.5 ml/kg) through hypoglossal vein. Both early (under 2 minutes) and late (over 7 minutes) fluorescein phases were captured. […]

ARPE-19 cells [2] = assay: NaIO3-induced injury in ARPE-19 cells (MTT); format: cell-based, human; details: 72 h
Experimental: (§1) ARPE-19 cells were grown in DMEM/F12 medium supplemented with 10% FBS, 100 units/ml penicillin G, and 100 μg/ml streptomycin sulfate. HUVECs were grown in vascular cell basal medium supplemented with endothelial cell growth kit. Cells were incubated in a humidified incubator at 37° C. under 5% CO2 and 95% air.
(§2) MTT assay was used to measure the viability of ARPE-19 cells and HUVECs. 2×10^5 ARPE-19 cells or 5×10^4 HUVECs were seeded in 96-well plates (100 μl/well) and allowed to grow overnight. Negative control was prepared by adding 100 μl medium without cells. The cells were then treated with fresh medium with a compound of Formula (II) (“(II)”) (0.03, 0.1, 0.3, 1, 3 and 10 μg/ml) and/or oxidants (NaIO3, H2O2, t-BHP and NaN3) for 12, 24, or 72 hours (200 μl/well). The vehicle control group was treated with vehicle. 20 μl MTT (5 mg/ml) was added to wells, and incubated for another 4 h. After incubation, the medium was discarded and 100 μl DMSO was added to solubilize formazan produced from MTT by the viable cells. Absorbance was measured at 570 nm using a microplate reader (Bio-Rad Laboratories, Inc., CA). Cells viability was calculated according to the following formula: Viability of cells (%)=(absorbance in tested sample−absorbance in negative control)/(absorbance in vehicle control−absorbance in negative control)×100%.

[3] = tested on: Ocular Hypertensive Rabbit; assay: Ocular blood flow in ocular hypertensive rabbit (colored microspheres); format: in vivo; details: 1% topical instillation, 30 minutes after drug instillation
Experimental: 0.5% alcaine was purchased commercially. A 20% sterilized hypertonic saline solution was prepared in the laboratory. Colored microspheres were purchased from E-Z Trac (Los Angeles, Calif.). The colored microspheres were diluted with saline containing 0.01% (v/v) of Tween 80 to prevent the microspheres from sticking together. Two million microspheres in 0.4 ml were injected at each time point.
Female New Zealand white rabbits weighing 2.-3.0 kg, were purchased commercially. Animal care and treatment were followed by the institutional guidelines.
Rabbits were anesthetized with 35 mg/kg ketamine and 5 mg/kg xylazine by intramuscular injection. Half of the initial dose was given every one hour thereafter. The left ventricle was cannulated through the right carotid artery for injection of colored microspheres and the femoral artery was cannulated for collection of blood samples. The left eye was treated with one drop of proparacaine hydrochloride ophthalmic solution (Bausch & Lomb, Inc., Tampa, Fla., USA). The needle was inserted directly into the anterior chamber of the left eye, which was connected to the 40 mmHg saline manometer. The ocular hypertensive model reduced the ocular blood flow to approximately one third of the normal valued. 50 μl of 10 g/l flavone or vehicle (30% HP-β-CD solution) was instilled topically to the left eye 30 minutes after the ocular hypertensive model was built. The ocular blood flow was measured by colored microspheres at 0, 30, 60 and 120 minutes after treatment with the compounds or vehicle. At each time point, 2 million microspheres were injected as a reference, and blood samples were taken from the femoral artery for exactly one minute following injection of the microspheres. The blood sample was collected in a heparinized tube and the volume was recorded. The rabbits were euthanized with an injection of 100 mg/kg pentobarbital sodium after the last blood sampling. The left eyes were enucleated and dissected into the iris, ciliary body, retina and choroid. All the tissues were weighed.
The details of sample processing and microsphere counting were provided by E-Z Trac (Los Angeles, Calif., USA). In brief, the blood hemolysis reagent was added to the microfuge tubes with the blood sample, then vortexed and centrifuged for 30 minutes at 6000 rpm. The supernatant was removed, and then tissue/blood digest reagents I and II were added. The tubes were capped, vortexed, and centrifuged for 30 minutes. […] The number of microspheres was counted by the hemocytometer under the microscope. […] The protocol thereafter was the same as that used to process the blood samples, and the microspheres were counted.
The blood flow of each tissue at a certain time point was calculated according to the following formula: Qm=(Cm×Qr)/Cr. […]

ARPE-19 cells [4] = assay: H2O2-induced injury in ARPE-19 cells (MTT); format: cell-based, human; details: 10 μg/ml compound, 24 hours
Experimental: as §1, §2

HUVECs = assay: MTT assay, proliferation/cytotoxicity in HUVECs; format: cell-based, human; details: 72 hours
Experimental: as §1, §2

CC(C)=CCC/C(C)=C/Cc1c([C@@H]2CC(=O)c3c(cc(O)c(CC=C(C)C)c3O)O2)ccc(O)c1O [Formula (II)]
area of CNV formation [1]: significantly suppressed | effect on viability in NaIO3-induced injury in ARPE-19 cells (ARPE-19 cells [2]; 30 μg/ml NaIO3, 0.03, 1, 3 and 10 μg/ml compound, P<0.05): significantly reversed | reversal of viability in NaIO3-induced injury in ARPE-19 cells (ARPE-19 cells [2]; 100 μg/ml NaIO3, 10 μg/ml compound): 24% | reversal of viability in NaIO3-induced injury in ARPE-19 cells (ARPE-19 cells [2]; 300 μg/ml NaIO3, 3 μg/ml compound): 7% | blood flow in choroid [3]: significantly increased | blood flow in iris [3]: significantly increased | reversal of H2O2-induced injury in ARPE-19 cells (ARPE-19 cells [4]; 200 μM H2O2): 55% | reversal of H2O2-induced injury in ARPE-19 cells (ARPE-19 cells [4]; 400 μM H2O2): 72% | effect on proliferation of HUVECs (HUVECs; 0.03 μg/ml to 3 μg/ml): did not affect | inhibition at 10 µg/mL (HUVECs; Homo sapiens, HUVEC, 10 μg/ml): 92%
